Measurements published in patent US8598356B2, “Heteroaryl-substituted urea modulators of fatty acid amide hydrolase” (Janssen Pharmaceutica NV, priority 2008, dated 2013).

Tests used:
Rat FAAH = molecular target: T1, Rat FAAH (Rattus norvegicus, UniProt P97612); test: Assay Method 2: FAAH assay, hydrolysis of 3H-anandamide by cell homogenate; assay type: biochemical; settings: T84 or transfected SK-N-MC cell homogenate, 3H-AEA 80 nM, rt 1 h, average of results obtained
T1 construct: expressed in transfected cells
T1 sequence (P97612 1-579): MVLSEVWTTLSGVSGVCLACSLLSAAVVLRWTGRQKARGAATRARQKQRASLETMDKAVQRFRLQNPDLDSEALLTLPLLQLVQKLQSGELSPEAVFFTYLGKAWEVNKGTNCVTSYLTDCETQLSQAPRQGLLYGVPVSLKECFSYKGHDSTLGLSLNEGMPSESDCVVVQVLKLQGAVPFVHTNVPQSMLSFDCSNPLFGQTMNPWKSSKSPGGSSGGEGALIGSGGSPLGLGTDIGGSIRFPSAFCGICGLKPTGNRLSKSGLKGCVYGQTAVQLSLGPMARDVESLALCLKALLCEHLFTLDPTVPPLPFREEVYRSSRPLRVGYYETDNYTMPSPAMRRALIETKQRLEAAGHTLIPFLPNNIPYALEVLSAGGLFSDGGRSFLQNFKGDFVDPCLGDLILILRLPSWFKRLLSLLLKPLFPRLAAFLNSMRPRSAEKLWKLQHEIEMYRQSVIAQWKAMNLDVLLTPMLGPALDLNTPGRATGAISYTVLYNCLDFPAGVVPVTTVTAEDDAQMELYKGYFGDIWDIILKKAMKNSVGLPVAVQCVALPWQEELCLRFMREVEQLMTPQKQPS
Protocol: A. Transfection of Cells with Rat FAAH
(§1) A 10-cm tissue culture dish with a confluent monolayer of SK-N-MC cells was split 2 days (d) prior to transfection. Using sterile technique, the media was removed and the cells were detached from the dish by the addition of trypsin. One fifth of the cells were then placed onto a new 10-cm dish. Cells were grown in a 37° C. incubator with 5% CO2 in Minimal Essential Media Eagle with 10% Fetal Bovine Serum. After 2 d, cells were approximately 80% confluent. These cells were removed from the dish with trypsin and pelleted in a clinical centrifuge. The pellet was re-suspended in 400 μL complete media and transferred to an electroporation cuvette with a 0.4 cm gap between the electrodes. Supercoiled rat FAAH cDNA (1 μg) was added to the cells and mixed. The voltage for the electroporation was set at 0.25 kV, and the capacitance was set at 960 After electroporation, the cells were diluted into complete media (10 mL) and plated onto four 10-cm dishes. Because of the variability in the efficiency of electroporation, four different concentrations of cells were plated. The ratios used were 1:20, 1:10, and 1:5, with the remainder of the cells being added to the fourth dish. The cells were allowed to recover for 24 h before adding the selection media (complete media with 600 μg/mL G418). After 10 d, dishes were analyzed for surviving colonies of cells. Dishes with well-isolated colonies were used. Cells from individual colonies were isolated and tested.
(§2) T84 frozen cell pellets or transfected SK-N-MC cells (contents of 1×15 cm culture dishes) were homogenized in 50 mL of FAAH assay buffer (125 mM Tris, 1 mM EDTA, 0.2% Glycerol, 0.02% Triton X-100, 0.4 mM Hepes, pH 9). The assay mixture consisted of 50 μL of the cell homogenate, 10 μL of the test compound, and 40 μL of anandamide [1-^3H-ethanolamine] (^3H-AEA, Perkin-Elmer, 10.3 Ci/mmol), which was added last, for a final tracer concentration of 80 nM. The reaction mixture was incubated at rt for 1 h. During the incubation, 96-well Multiscreen filter plates (catalog number MAFCNOB50; Millipore, Bedford, Mass., USA) were loaded with 25 of activated charcoal (Multiscreen column loader, catalog number MACL09625, Millipore) and washed once with 100 μL of MeOH. Also during the incubation, 96-well DYNEX MicroLite plates (catalog number NL510410) were loaded with 100 μL of MicroScint40 (catalog number 6013641, Packard Bioscience, Meriden, Conn., USA). After the 1 h incubation, 60 μL of the reaction mixture were transferred to the charcoal plates, which were then assembled on top of the DYNEX plates using Centrifuge Alignment Frames (catalog number MACF09604, Millipore). The unbound labeled ethanolamine was centrifuged through to the bottom plate (5 min at 2000 rpm), which was preloaded with the scintillant, as described above. The plates were sealed and left at rt for 1 h before counting on a Hewlett Packard TopCount.
(§3) Results for compounds tested in these assays are summarized in Table 1, as an average of results obtained. Compounds were tested in free base, hydrochloride salt, and/or trifluoroacetic acid salt forms. Where activity is shown as greater than (>) a particular value, the value is the solubility limit of the compound in the assay medium or the highest concentration tested in the assay.

Human FAAH = molecular target: T2, Human FAAH (Homo sapiens, UniProt O00519); test: Assay Method 1: FAAH assay, hydrolysis of 3H-anandamide by cell homogenate; assay type: biochemical; settings: T84 or transfected SK-N-MC cell homogenate, 3H-AEA 80 nM, rt 1 h, average of results obtained
T2 construct: expressed in transfected cells; alternatively T84 frozen cell pellets
T2 sequence (O00519 1-579): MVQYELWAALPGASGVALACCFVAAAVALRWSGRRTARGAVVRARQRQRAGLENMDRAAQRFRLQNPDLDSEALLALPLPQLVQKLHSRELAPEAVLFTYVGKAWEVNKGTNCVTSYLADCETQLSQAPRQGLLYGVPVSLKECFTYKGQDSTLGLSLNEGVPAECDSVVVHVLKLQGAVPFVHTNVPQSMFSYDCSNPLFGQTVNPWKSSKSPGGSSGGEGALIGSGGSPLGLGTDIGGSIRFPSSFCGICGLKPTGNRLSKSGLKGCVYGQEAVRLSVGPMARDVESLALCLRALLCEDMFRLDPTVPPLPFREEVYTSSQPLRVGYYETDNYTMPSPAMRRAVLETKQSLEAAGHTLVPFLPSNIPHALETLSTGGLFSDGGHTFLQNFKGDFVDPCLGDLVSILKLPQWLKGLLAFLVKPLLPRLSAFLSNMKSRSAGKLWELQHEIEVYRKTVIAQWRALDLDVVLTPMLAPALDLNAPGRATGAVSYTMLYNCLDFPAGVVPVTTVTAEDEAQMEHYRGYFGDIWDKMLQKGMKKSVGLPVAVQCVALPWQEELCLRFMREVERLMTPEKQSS
Protocol: A. Transfection of Cells with Human FAAH
as §1, with “Supercoiled human” for “Supercoiled rat”, “960 μF.” for “960”
as §2, with “with 25 μL of activated” for “with 25 of activated”, “plates using” for “plates using Centrifuge Alignment Frames (catalog number MACF09604, Millipore). The unbound labeled ethanolamine was centrifuged through to the bottom plate (5 min at 2000 rpm), which was preloaded with the scintillant, as described above. The plates were sealed and left at rt for 1 h before counting on a Hewlett Packard TopCount.”
Centrifuge Alignment Frames (catalog number MACF09604, Millipore). The unbound labeled ethanolamine was centrifuged through to the bottom plate (5 min at 2000 rpm), which was preloaded with the scintillant, as described above. The plates were sealed and left at rt for 1 h before counting on a Hewlett Packard TopCount.
as §3

Row | Structure (SMILES) | IC50 (Rat FAAH) | IC50 (Human FAAH)
1 | O=C(Nc1cccnc1)N1CCCC(Cc2cccc(OC(F)(F)F)c2)C1 (centres unmarked) [Example 18, 3-(3-Trifluoromethoxy-benzyl)-piperidine-1-carboxylic acid pyridin-3-ylamide] | 450 nM | 190 nM
2 | O=C(Nc1cnccc1Cl)N1CCCC(Cc2cccc(Oc3ccc(F)cc3)c2)C1 (centres unmarked) [Example 11, 3-[3-(4-Fluoro-phenoxy)-benzyl]-piperidine-1-carboxylic acid (4-chloro-pyridin-3-yl)-amide] | 8 nM | 87 nM
3 | O=C(Nc1ccncn1)N1CCCC(Cc2ccc(F)cc2)C1 (centres unmarked) [Example 4, 3-[4(4-Fluorophenyl)methyl]-N-pyrimidin-4-ylpiperidine-1-carboxamide] | > 10000 nM | 10000 nM
4 | O=C(Nc1cccnc1)N1CCCC(Cc2ccc(Cl)c(Cl)c2)C1 (centres unmarked) [Example 17, 3-(3,4-Dichloro-benzyl)-piperidine-1-carboxylic acid pyridin-3-ylamide] | 180 nM | 48 nM
